Results: patent US5455286A, “Bioactive composition” (priority 1994, dated 1995)

Tests used:
[1] = dog, in vivo, 480 min
Protocol: (§1) The experiments were carried out on male beagle dogs, each roughly 10 kg in weight. […] The dogs were restrained in a dog sling. Approximately 10 mg of propranolol was administered nasally to each dog by spraying an appropriate amount of the present formulations containing propranolol into both nostrils of the dog using a metered dose dispenser (typically 2 sprays over a two minute period). The amount of drug administered nasally was obtained by weighing the dispenser before and after spraying.
(§2) Blood samples were withdrawn at desired intervals from each dog through a cannula inserted in the cephalic vein. The blood samples were centrifuged immediately after the collection and the plasma samples were stored frozen until assayed. The assay for propranolol consisted of HPLC separation and UV/fluorescence detection.
(§3) The area under the curve (AUC) has been normalized to the amount of propranolol administered.

[2] = in vivo; details: dog
Protocol: as §1, §2, §3

AUC/IV-AUC [1]: 1.00 | Tmax ([2]; iv): 0.05 h | Cmax ([2]; po): 3 ng/mL | Tmax ([2]; po): 2 h | bioavailability at 8 h ([2]; po): 4%
Compound: CC(C)NCC(O)COc1cccc2ccccc12 (centres unmarked) [Propranolol, propranolol]
